In US20130150430A1, “Methods for Impairing the P53/HDM2 Auto-Regulatory Loop in Multiple Myeloma Development Using mIR-192, mIR-194 and mIR-215” (THE OHIO STATE UNIVERSITY, priority 2011, published 2013):

Legend:
HDM2 3′UTR = test: Luciferase reporter assay, pGL3-MDM2-3'UTR; type: cell-based, human; settings: MM1s cells, construct containing all MREs
Experimental: FIG. 4G: miRNAs predicted to interact with HDM2 gene in several consensus binding sites (x) at its 3′-UTR, according to “in silico” RNA-22 prediction software. Luciferase assay showing decreased luciferase activity in cells co-transfected with pGL3-MDM2-3′UTR and miR-192, miR-194, miR-215 and Scr sequence. See also FIG. 18. All experiments were performed in triplicate ±SD.
To verify that HDM2 is a direct target of miR-192, miR-194 and miR-215, HDM2 3′UTR containing all MREs (˜4K), was cloned into pGL3 basic construct downstream of the luciferase open reading frame (FIG. 4D). This reporter construct was used to transfect the highly transfectable MM1s cells that express the endogenous miRs following up-modulated p53 expression.
MM1s cells were cotransfected with 1 μg of pGL3 firefly luciferase reporter vector, 0.1 μg of the phRL-SV40 control vector (Promega), and 100 nM miRNA precursors (Ambion) using nucleoporation (LONZA) Cell Line Nucleofector Kit V. Firefly and Renilla luciferase activities were measured consecutively by using the Dual Luciferase Assay (Promega) 24 hr after transfection. Each reporter plasmid was transfected at least twice (on different days) and each sample was assayed in triplicate. […]

GFP+/Luc+ MM1S cells = test: In vivo homing model, iv injected transfected MM1S cells plus weekly iv miRNA; parameters: species or system NOD-SCID mice; settings: for tumor burden (bioluminescence imaging): 5 wk post-injection, 10 μg iv weekly for 4 wk, vs Scr; for bone marrow engraftment of MM1s (human CD-138+ cells by FACS): 35 days after injection, Scr-treated mice ~25±15%
Experimental: FIG. 7C: In vivo confocal imaging. 8×10^6GFP+/Luc+ MM1s cells were transfected using either pre-miRNA-192, miR-194, miR-215 and Scr RNA oligos and then iv injected into mice immediately after transfection. After 1 wk the mice were miRNAs iv injected (10 ug) once a wk for 4 wk and the bioluminescence intensity was assessed before every injection.
FIG. 7D: Representative bioluminescence imaging (BLD after 5 wk from the injection.
FIG. 7E: Bone marrow cells from the mice used for the experiment were isolated and human CD-138 positive cells (engrafted cells) were detected using anti-CD-138 antibody by flow cytometry (P2 fraction).
As shown in FIG. 7B and FIG. 21C, IGF-1 (50 ng/ml) stimulated migration of MM cells, MM1s and RPMI-8226. To further examine the role of miRNA-192, miR-215 and miR-194 in MM cells, the inventors investigated the effect of these miRNAs on migration in vivo, using a homing model (Roccaro et al., Blood, 113:6669-6680 (2009)). Nine NOD-SCID mice (for each group) were intravenously injected with 8×10^6 of pre-miRNA-192-, -194 and -215 or Scr probe-transfected GFP^+/Lue^+ MM1S cells. One wk later, mice were iv-injected every week for 4 wk with an individual miRNA or Scr dissolved in PBS (10 μg for each mouse).
Mice were injected with 75 mg/kg of Luciferin (Xenogen, Hopkington, Mass.), and tumor growth was detected by bioluminescence 10 min after the injection. The home-built bioluminescence system used an electron multiplying CCD (Andor Technology Limited, Belfast, United Kingdom) with an exposure time of 30 sec, and an electron multiplication gain of 500 voltage gain×200, 5-by-5 binning, and with background subtraction. Images were analyzed using Image-J software (National Institutes of Health, Bethesda, Md.).
Animal studies were performed according to institutional guidelines. For the sub-cutaneous engraftment model 8 wk old male athymic nu/nu mice (Charles River Laboratories, Wilmington, Mass.) were maintained in accordance with IACUC procedures and guidelines. 8×10^6 of GFP/Luc+MM1s cells were suspended in 0.10 ml of extracellular matrix gel (BD Biosciences) and the mixture was injected subcutaneously into the right flank. […] Measurements of xenograft growth were performed, and tumor volume was estimated using the formula 4/3 a (L*W*H/8). Tumor size was assessed by digital caliper. […] Tumor size was assessed every 7 days by, bioluminescence images. Thirty-five days after injection, mice were analyzed by bioluminescence images and then sacrificed. MM1s bone marrow isolated cells were stained with anti-human CD-138 antibody (BD) and analyzed by FACS analysis. Statistical significance of differences between control and treated animals was evaluated using Student's t test. […]

KMS-28BM cells = test: Cell cycle analysis by flow cytometry (sub-G1); type: cell-based, human; settings: 48 hr after transfection; Scr control ~3%
Experimental: FIG. 3G, FIG. 3H, FIG. 31, FIG. 3J: Flow cytometry analysis in MM1s (FIG. 3G), NCI-H929 (FIG. 3H) and KMS28BM (FIG. 31) cells (miR-192, miR-194, miR-215 and Scr transfected) at 48 hr of transfection, after first being arrested and synchronized in G2/M phase by Nocodazole for 16 hr. Apoptosis in KMS28BM was evaluated by caspase-3 activity (FIG. 3J). All experiments were performed in triplicate ±SD.
Nocodazole was (Sigma-Aldrich) was dissolved in DMSO as a stock solution of 10 mg/ml for cell cycle arrest in G2/M phase. Cells were first arrested and synchronized in G2/M phase by growth in 80 nM nocodazole for 16 hr. Cells were then washed and fresh medium added. After 6 hr, cell cycle analysis was performed by propidium iodide staining. Corresponding amounts of DMSO alone were added in control experiments. […] For DNA content analysis, cells were fixed in methanol at −20° C., washed again, rehydrated, re-suspended in PBS containing 50 μg/ml propidium iodide (PI) and 50 μg/ml RNase A, and analyzed by flow cytometry (Becton Dickinson). […] After the treatment the cells were analyzed using Caspase-Glo 3 Assay kit (Promega) according to the manufacturer's instructions. Continuous variables were expressed as mean values ± standard deviation (s.d.).

## miR-192: microRNA, p53-activated, down-regulated in MM; transfected as miRNA precursor (Ambion) or lentivector; SEQ ID NO:56 (CUGACCUAUGAAUUGACAGCC; listed as RNA, chemistry not given here; listed as Homo sapiens)
HDM2 3′UTR
  luciferase expression of HDM2 3′UTR reporter: significantly diminished
GFP+/Luc+ MM1S cells
  tumor burden (bioluminescence imaging): nearly nonexistent
  bone marrow engraftment of MM1s (human CD-138+ cells by FACS): 4±2%
KMS-28BM cells
  sub-G1 fraction (indicative of cell death): ~25%

## miR-215: microRNA, p53-activated, down-regulated in MM; transfected as miRNA precursor (Ambion) or lentivector; SEQ ID NO:58 (AUGACCUAUGAAUUGACAGAC; listed as RNA, chemistry not given here; listed as Homo sapiens)
HDM2 3′UTR
  luciferase expression of HDM2 3′UTR reporter: significantly diminished
GFP+/Luc+ MM1S cells
  tumor burden (bioluminescence imaging): nearly nonexistent
  bone marrow engraftment of MM1s (human CD-138+ cells by FACS): 2±2%
KMS-28BM cells
  sub-G1 fraction (indicative of cell death): 30%
